Source: ChEMBL document CHEMBL1201862, “PubChem BioAssay data set” (2004)
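Cultured in 96-well plates, cells were exposed to test compound for 48 hours across five concentrations. Here, GI50 denotes the concentration required for 50% inhibition of growth.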 Active and inactive are the calls of the source. Rule as the data show it: active = GI50 up to about 1.1 µM and inactive = higher.

Assays:
Assay in all cases: NCI anticancer screen, dose series, 48 h
[1] = test system: OVCAR-4
[2] = test system: SF-295
[3] = test system: UACC-257
[4] = test system: OVCAR-8
[5] = test system: CCRF-CEM
[6] = test system: SK-MEL-5
[7] = test system: A498
[8] = test system: SR
[9] = test system: SNB-19
[10] = test system: U-251
[11] = test system: HL-60
[12] = test system: NCI-H23
[13] = test system: DU-145
[14] = test system: EKVX
[15] = test system: MDA-N
[16] = test system: SK-OV-3
[17] = test system: MDA-MB-435
[18] = test system: Malme-3M
[19] = test system: LOX IMVI
[20] = test system: RXF 393

What does the source list for `C=C[C@@H](OCOCC[Si](C)(C)C)[C@@H](CC)OC(CCCOC(=O)C(C)(C)C)OC` (stereo not given in full)?
GI50 [1]: 26.4 µM (inactive); GI50 [2]: 22 µM (inactive); GI50 [3]: 34.6 µM (inactive); GI50 [4]: 38.5 µM (inactive); GI50 [5]: 27.9 µM (inactive); GI50 [6]: 31.3 µM (inactive); GI50 [7]: 43.8 µM (inactive); GI50 [8]: 41.6 µM (inactive); GI50 [9]: 16.3 µM (inactive); GI50 [10]: 21 µM (inactive); GI50 [11]: 18.4 µM (inactive); GI50 [12]: 28.3 µM (inactive); GI50 [13]: 43.7 µM (inactive); GI50 [14]: 25.3 µM (inactive); GI50 [15]: 45.1 µM (inactive); GI50 [16]: > 100 µM (inactive); GI50 [17]: 38.5 µM (inactive)

Which results are given for `COC(=O)[C@](NC(=O)OCc1ccccc1)([C@@H](C)Sc1ccc(C)cc1)C(F)(F)F`?
GI50 [1]: 32.3 µM (inactive); GI50 [2]: 61.1 µM (inactive); GI50 [3]: 35 µM (inactive); GI50 [4]: 19.5 µM (inactive); GI50 [5]: 13.6 µM (inactive); GI50 [6]: 18.3 µM (inactive); GI50 [7]: > 100 µM (inactive); GI50 [18]: 55.7 µM (inactive); GI50 [8]: 31.1 µM (inactive); GI50 [9]: > 100 µM (inactive); GI50 [10]: 46.9 µM (inactive); GI50 [11]: 17.4 µM (inactive); GI50 [12]: 19.7 µM (inactive); GI50 [13]: 24.7 µM (inactive); GI50 [14]: 57.9 µM (inactive); GI50 [15]: 63.5 µM (inactive); GI50 [19]: 39 µM (inactive); GI50 [16]: > 100 µM (inactive); GI50 [17]: 49.2 µM (inactive)

`CC(=O)OCC1OC(OC2CC3C(C)(C)C(=O)CC[C@]3(C)C3CC[C@]45C[C@]4(CCC5[C@@H](C)CC(O)C(O)C(C)(C)O)[C@]23C)C(O)C(O)C1O` (stereo not given in full) was tested. Which GI50 [1] did it give?
The GI50 was 12.7 µM (inactive).

What about the GI50 [2] of the same compound?
The GI50 was 14.1 µM (inactive).

And the GI50 [3]?
Its GI50 is 11.2 µM (inactive).

What about the GI50 [4] of the same compound?
The GI50 was 13.5 µM (inactive).

What about the GI50 [5] of the same compound?
Its GI50 is 4.13 µM (inactive).

And the GI50 [6]?
The GI50 was 7.66 µM (inactive).

And the GI50 [18]?
The GI50 was 14.1 µM (inactive).

What about the GI50 [8] of the same compound?
The GI50 was 4.35 µM (inactive).

And the GI50 [9]?
Its GI50 is 11.3 µM (inactive).

What about the GI50 [20] of the same compound?
Its GI50 is 10 µM (inactive).

And the GI50 [10]?
The GI50 was 8.13 µM (inactive).

And the GI50 [11]?
Its GI50 is 2.25 µM (inactive).

What about the GI50 [12] of the same compound?
The GI50 was 17.5 µM (inactive).

And the GI50 [13]?
Its GI50 is 17.1 µM (inactive).

What about the GI50 [14] of the same compound?
The GI50 was 16.3 µM (inactive).

And the GI50 [15]?
Its GI50 is 10.7 µM (inactive).

What about the GI50 [19] of the same compound?
Its GI50 is 3.72 µM (inactive).

And the GI50 [16]?
The GI50 was 15.5 µM (inactive).

What about the GI50 [17] of the same compound?
The GI50 was 8.99 µM (inactive).

How did the GI50 [1] turn out when `CN(C)CCNC(=O)c1cccc2c(NC(CS)C(=O)O)c3ccccc3nc12` (stereo not given) was run?
Its GI50 is 17.1 µM (inactive).

And the GI50 [2]?
The GI50 was 5.32 µM (inactive).

And the GI50 [3]?
The GI50 was 10.1 µM (inactive).

And the GI50 [4]?
The GI50 was 13.5 µM (inactive).

And the GI50 [5]?
The GI50 was 6.37 µM (inactive).

And the GI50 [6]?
Its GI50 is 3.07 µM (inactive).

What about the GI50 [7] of the same compound?
The GI50 was > 10 µM (inactive).

What about the GI50 [18] of the same compound?
Its GI50 is 2.52 µM (inactive).

What about the GI50 [8] of the same compound?
The GI50 was 96.2 µM (inactive).

What about the GI50 [9] of the same compound?
The GI50 was 7.52 µM (inactive).

And the GI50 [10]?
The GI50 was 6.38 µM (inactive).

And the GI50 [11]?
Its GI50 is 3.3 µM (inactive).

What about the GI50 [12] of the same compound?
The GI50 was 8.22 µM (inactive).

And the GI50 [13]?
The GI50 was 10.5 µM (inactive).

What about the GI50 [14] of the same compound?
The GI50 was 11.3 µM (inactive).

What about the GI50 [15] of the same compound?
Its GI50 is 4.55 µM (inactive).

And the GI50 [19]?
The GI50 was 4.41 µM (inactive).

What about the GI50 [16] of the same compound?
The GI50 was 9.86 µM (inactive).

What about the GI50 [17] of the same compound?
The GI50 was 4.49 µM (inactive).

Which GI50 [1] does the source give for `CCO/C=C(\C(=O)OC)S(=O)(=O)c1ccc(C)cc1` here?
The GI50 was > 100 µM (inactive).

And the GI50 [2]?
Its GI50 is > 100 µM (inactive).

What about the GI50 [3] of the same compound?
Its GI50 is > 100 µM (inactive).

What about the GI50 [4] of the same compound?
The GI50 was > 100 µM (inactive).

And the GI50 [5]?
The GI50 was > 100 µM (inactive).

What about the GI50 [6] of the same compound?
The GI50 was > 100 µM (inactive).

What about the GI50 [18] of the same compound?
Its GI50 is > 100 µM (inactive).

What about the GI50 [8] of the same compound?
The GI50 was > 100 µM (inactive).

And the GI50 [9]?
Its GI50 is > 100 µM (inactive).

What about the GI50 [20] of the same compound?
Its GI50 is > 100 µM (inactive).

And the GI50 [10]?
Its GI50 is > 100 µM (inactive).

What about the GI50 [11] of the same compound?
Its GI50 is 0.0596 µM (active).

And the GI50 [12]?
The GI50 was > 100 µM (inactive).

And the GI50 [13]?
The GI50 was > 100 µM (inactive).

And the GI50 [14]?
The GI50 was > 100 µM (inactive).

What about the GI50 [15] of the same compound?
The GI50 was > 100 µM (inactive).

And the GI50 [19]?
The GI50 was > 100 µM (inactive).

What about the GI50 [16] of the same compound?
The GI50 was > 100 µM (inactive).

And the GI50 [17]?
The GI50 was > 100 µM (inactive).

Which results are given for `CC(=O)NC(C)c1ccc(/N=N/N2CCCC2)cc1` (stereo not given)?
GI50 [1]: > 100 µM (inactive); GI50 [2]: > 100 µM (inactive); GI50 [3]: > 100 µM (inactive); GI50 [4]: > 100 µM (inactive); GI50 [5]: > 100 µM (inactive); GI50 [6]: > 100 µM (inactive); GI50 [7]: > 100 µM (inactive); GI50 [18]: > 100 µM (inactive); GI50 [9]: > 100 µM (inactive); GI50 [20]: > 100 µM (inactive); GI50 [10]: > 100 µM (inactive); GI50 [11]: 27.4 µM (inactive); GI50 [12]: > 100 µM (inactive); GI50 [13]: > 100 µM (inactive); GI50 [14]: > 100 µM (inactive); GI50 [15]: > 100 µM (inactive); GI50 [19]: > 100 µM (inactive); GI50 [16]: > 100 µM (inactive); GI50 [17]: > 100 µM (inactive)

With `COc1ccc(OC2OC(CO)C(OCc3ccccc3)C(OCc3ccccc3)C2OCc2ccccc2)cc1` (stereo not given) as the compound, how does the GI50 [2] read?
The GI50 was 76.7 µM (inactive).

And the GI50 [3]?
The GI50 was > 100 µM (inactive).

And the GI50 [4]?
The GI50 was > 100 µM (inactive).

And the GI50 [5]?
Its GI50 is 6.98 µM (inactive).

What about the GI50 [6] of the same compound?
Its GI50 is 54.8 µM (inactive).

What about the GI50 [7] of the same compound?
The GI50 was > 100 µM (inactive).

What about the GI50 [18] of the same compound?
The GI50 was 39.1 µM (inactive).

What about the GI50 [8] of the same compound?
Its GI50 is 15.5 µM (inactive).

And the GI50 [9]?
Its GI50 is > 100 µM (inactive).

What about the GI50 [10] of the same compound?
Its GI50 is 25.7 µM (inactive).

What about the GI50 [11] of the same compound?
The GI50 was 88.9 µM (inactive).

And the GI50 [12]?
The GI50 was 14.4 µM (inactive).

And the GI50 [13]?
The GI50 was > 100 µM (inactive).

What about the GI50 [14] of the same compound?
The GI50 was 11.4 µM (inactive).

And the GI50 [15]?
The GI50 was 76 µM (inactive).

What about the GI50 [19] of the same compound?
The GI50 was > 100 µM (inactive).

What about the GI50 [16] of the same compound?
The GI50 was > 100 µM (inactive).

And the GI50 [17]?
Its GI50 is > 100 µM (inactive).
